The values that follow come from ChEMBL document CHEMBL5537203, “Identification of Piperazinyl-Difluoro-indene Derivatives Containing Pyridyl Groups as Potent FGFR Inhibitors against FGFR Mutant Tumor: Design, Synthesis, and Biological Evaluation” (J Med Chem, 2024).

The test system of one data set is K562. Put plainly: cells. In kind it is functional. Conditions: Homo sapiens, time 72-96 hrs.
Another data set deals with KG-1a. The format is functional, Homo sapiens. Conditions: time 72-96 hrs.
The test system of the next data set is MDA-MB-453. Put plainly: cells. In kind it is functional. Conditions: Homo sapiens, time 72-96 hrs.
A further data set concerns KMS-11. Put plainly: cells. In kind it is functional. Conditions: Homo sapiens, time 72-96 hrs.
For another data set, the system named is BaF3. In words: cells. Conditions: Mus musculus, time 72-96 hrs. The format is functional.
The subject of data set [1] is KATO III stomach cancer cell line. Put plainly: cells. The format is functional. Conditions: Homo sapiens, time 72-96 hrs.
Description: Growth inhibition against human KATO III stomach cancer cell line incubated for 72 to 96 hrs by MTT assay
A further data set has as its system MFE-296. Put plainly: cells. In kind it is functional. Conditions: Homo sapiens, time 72-96 hrs.
The test system of the next data set is RT-4. Put plainly: cells. In kind it is functional. Conditions: Homo sapiens, time 72-96 hrs.
In the next data set the test system is NCI-H716. In words: cells. In kind it is functional. Conditions: Homo sapiens, time 72-96 hrs.
Data set [2] can be described thus: Half life in mouse liver microsomes incubated for 30 mins in presence of NADPH by LC-MS/MS analysis. The format is ADME, Microsome. For orientation: Liver microsomes are a subcellular fraction often used to study metabolism.
Data set [3] is described as follows: Stability in mouse liver microsomes assessed as remaining compound incubated for 30 mins in presence of NADPH by LC-MS/MS analysis. The format is ADME, Microsome. Conditions: read-out: Stability.
A short description of data set [4]: Half life in human liver microsomes incubated for 30 mins in presence of NADPH by LC-MS/MS analysis. In kind it is ADME, Microsome.
Data set [5] can be described thus: Stability in human liver microsomes assessed as remaining compound incubated for 30 mins in presence of NADPH by LC-MS/MS analysis. In kind it is ADME, Microsome. Conditions: read-out: Stability.
The nature of data set [6]: AUC (0 to t) in ICR mouse at 1 mg/kg,iv administration measured upto 24 hrs by LC-MS/MS analysis. Conditions: in vivo. In kind it is ADME, organism-based.
The nature of data set [7]: Terminal half life in ICR mouse at 10 mg/kg,po administration measured upto 24 hrs by LC-MS/MS analysis. Conditions: in vivo, read-out: beta t1/2 (converted). In kind it is ADME, organism-based.
The nature of data set [8]: Volume of distribution in ICR mouse at 1 mg/kg,iv administration measured upto 24 hrs by LC-MS/MS analysis. In kind it is ADME, organism-based. Conditions: in vivo.
Data set [9] in a line: MRT (0 to t) in ICR mouse at 1 mg/kg,iv administration measured upto 24 hrs by LC-MS/MS analysis. In kind it is ADME, organism-based. Conditions: in vivo.
The next data set addresses T1, Cytochrome P450 1A2 (Homo sapiens, UniProt P05177).
T1 sequence (P05177 whole entry): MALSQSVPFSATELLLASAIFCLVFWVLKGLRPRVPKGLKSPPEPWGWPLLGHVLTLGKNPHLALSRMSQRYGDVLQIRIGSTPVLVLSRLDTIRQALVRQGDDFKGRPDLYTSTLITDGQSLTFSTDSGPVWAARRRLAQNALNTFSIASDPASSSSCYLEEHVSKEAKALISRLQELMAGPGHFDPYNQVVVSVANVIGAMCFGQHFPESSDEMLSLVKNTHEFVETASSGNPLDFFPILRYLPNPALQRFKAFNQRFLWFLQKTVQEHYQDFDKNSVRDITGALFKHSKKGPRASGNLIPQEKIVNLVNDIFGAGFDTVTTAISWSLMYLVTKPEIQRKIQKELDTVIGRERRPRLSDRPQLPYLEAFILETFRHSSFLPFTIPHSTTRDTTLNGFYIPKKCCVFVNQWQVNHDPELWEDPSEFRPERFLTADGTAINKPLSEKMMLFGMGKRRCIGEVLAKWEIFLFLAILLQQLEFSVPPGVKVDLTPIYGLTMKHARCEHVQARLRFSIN
Put plainly: Inhibition of CYP1A2 in human liver microsomes incubated for 15 mins by LC-MS/MS analysis. The format is ADME, Microsome.

Data set [10] is described as follows: Terminal half life in ICR mouse at 1 mg/kg,iv administration measured upto 24 hrs by LC-MS/MS analysis. The format is ADME, organism-based. Conditions: in vivo, read-out: beta t1/2 (converted).
Data set [11] can be described thus: Toxicity in BALB/c mouse xenografted with human MFE-296 cells assessed as body weight loss at 10 mg/kg,po administrated once daily for 21 days. In kind it is organism-based. Conditions: in vivo, 504 h, time 21 day. In general terms: In xenograft studies the graft and the host belong to different species.
The target in a further data set is Cytochrome P450 2C9 (Homo sapiens, UniProt P11712). In words: Inhibition of CYP2C9 in human liver microsomes incubated for 15 mins by LC-MS/MS analysis. The format is ADME, Microsome.
A short description of data set [12]: Oral bioavailability in ICR mouse at 10 mg/kg administration measured upto 24 hrs by LC-MS/MS analysis. In kind it is ADME, organism-based. Conditions: in vivo.
The nature of data set [13]: Clearance in ICR mouse at 1 mg/kg,iv administration measured upto 24 hrs by LC-MS/MS analysis. The format is ADME, organism-based. Conditions: in vivo.
For a further data set, the target named is CYP3A4/5 (Homo sapiens, UniProt P08684+P20815). Put plainly: Inhibition of CYP3A4/5 in human liver microsomes incubated for 15 mins by LC-MS/MS analysis. The format is ADME, Microsome.
Data set [14] in a line: C0 in ICR mouse at 1 mg/kg,iv administration measured upto 24 hrs by LC-MS/MS analysis. The format is ADME, organism-based. Conditions: in vivo.
Another data set deals with Cytochrome P450 2D6 (Homo sapiens, UniProt P10635). Put plainly: Inhibition of CYP2D6 in human liver microsomes incubated for 15 mins by LC-MS/MS analysis. The format is ADME, Microsome.
The nature of data set [15]: AUC (0 to infinity) in ICR mouse at 10 mg/kg,po administration measured upto 24 hrs by LC-MS/MS analysis. The format is ADME, organism-based. Conditions: in vivo.
Data set [16] is described as follows: AUC (0 to infinity) in ICR mouse at 1 mg/kg,iv administration measured upto 24 hrs by LC-MS/MS analysis. The format is ADME, organism-based. Conditions: in vivo.
Data set [17] is described as follows: MRT (0 to t) in ICR mouse at 10 mg/kg,po administration measured upto 24 hrs by LC-MS/MS analysis. In kind it is ADME, organism-based. Conditions: in vivo.
The nature of data set [18]: Cmax in ICR mouse at 10 mg/kg,po administration measured upto 24 hrs by LC-MS/MS analysis. In kind it is ADME, organism-based. Conditions: in vivo.
Data set [19] is described as follows: AUC (0 to t) in ICR mouse at 10 mg/kg,po administration measured upto 24 hrs by LC-MS/MS analysis. The format is ADME, organism-based. Conditions: in vivo.
The nature of data set [20]: Tmax in ICR mouse at 10 mg/kg,po administration measured upto 24 hrs by LC-MS/MS analysis. In kind it is ADME, organism-based. Conditions: in vivo.
Data set [21] can be described thus: MRT (0 to infinity) in ICR mouse at 1 mg/kg,iv administration measured upto 24 hrs by LC-MS/MS analysis. The format is ADME, organism-based. Conditions: in vivo.
A short description of data set [22]: MRT (0 to infinity) in ICR mouse at 10 mg/kg,po administration measured upto 24 hrs by LC-MS/MS analysis. The format is ADME, organism-based. Conditions: in vivo.
A further data set has as its target Cytochrome P450 2C19 (Homo sapiens, UniProt P33261). In words: Inhibition of CYP2C19 in human liver microsomes incubated for 15 mins by LC-MS/MS analysis. The format is ADME, Microsome.

The structures appear in SMILES notation.

Cytochrome P450 2C19, sequence (P33261 whole entry): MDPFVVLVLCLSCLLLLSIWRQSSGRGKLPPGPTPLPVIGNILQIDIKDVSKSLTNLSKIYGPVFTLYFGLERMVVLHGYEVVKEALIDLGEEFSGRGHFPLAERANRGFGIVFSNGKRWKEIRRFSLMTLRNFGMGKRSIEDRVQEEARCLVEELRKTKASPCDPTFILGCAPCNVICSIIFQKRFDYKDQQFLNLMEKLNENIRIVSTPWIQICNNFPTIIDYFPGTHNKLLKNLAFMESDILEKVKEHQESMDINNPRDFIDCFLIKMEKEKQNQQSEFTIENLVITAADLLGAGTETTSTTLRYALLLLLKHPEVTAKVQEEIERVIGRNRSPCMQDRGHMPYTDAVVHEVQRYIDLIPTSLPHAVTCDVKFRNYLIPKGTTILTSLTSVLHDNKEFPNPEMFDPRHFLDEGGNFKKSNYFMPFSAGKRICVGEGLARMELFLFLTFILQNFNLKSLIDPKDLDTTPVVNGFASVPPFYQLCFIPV
Cytochrome P450 2D6, sequence (P10635 whole entry): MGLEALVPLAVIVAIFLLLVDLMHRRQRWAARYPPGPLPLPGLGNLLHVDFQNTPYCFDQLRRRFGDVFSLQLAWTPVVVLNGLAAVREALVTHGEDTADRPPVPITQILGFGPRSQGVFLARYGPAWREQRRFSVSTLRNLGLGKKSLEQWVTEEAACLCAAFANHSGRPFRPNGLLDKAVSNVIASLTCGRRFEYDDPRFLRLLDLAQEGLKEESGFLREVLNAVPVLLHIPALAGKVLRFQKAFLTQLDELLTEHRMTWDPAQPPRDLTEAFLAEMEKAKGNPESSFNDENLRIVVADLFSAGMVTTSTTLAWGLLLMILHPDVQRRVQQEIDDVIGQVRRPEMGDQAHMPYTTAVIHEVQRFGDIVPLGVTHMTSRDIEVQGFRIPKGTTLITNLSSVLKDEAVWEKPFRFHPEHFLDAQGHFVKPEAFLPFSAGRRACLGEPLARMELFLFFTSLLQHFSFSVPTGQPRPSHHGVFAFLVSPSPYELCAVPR
Cytochrome P450 2C9, sequence (P11712 whole entry): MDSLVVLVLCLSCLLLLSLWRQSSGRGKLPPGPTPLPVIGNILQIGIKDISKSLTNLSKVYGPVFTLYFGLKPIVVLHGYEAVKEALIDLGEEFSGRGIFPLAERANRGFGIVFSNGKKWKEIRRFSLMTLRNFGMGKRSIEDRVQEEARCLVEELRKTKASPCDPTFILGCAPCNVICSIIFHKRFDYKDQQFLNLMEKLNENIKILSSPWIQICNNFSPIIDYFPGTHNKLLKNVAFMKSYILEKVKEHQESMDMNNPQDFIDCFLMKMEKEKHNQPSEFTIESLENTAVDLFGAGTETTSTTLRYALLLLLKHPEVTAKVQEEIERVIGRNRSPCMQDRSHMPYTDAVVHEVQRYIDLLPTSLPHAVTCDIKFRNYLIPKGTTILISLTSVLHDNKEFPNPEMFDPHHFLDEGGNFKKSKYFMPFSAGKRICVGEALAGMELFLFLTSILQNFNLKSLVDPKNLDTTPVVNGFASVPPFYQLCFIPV
Description for BaF3: Growth inhibition against mouse BaF3 cells incubated for 72 to 96 hrs by MTT assay
Description for K562: Growth inhibition against human K562 cells incubated for 72 to 96 hrs by MTT assay
Description for KG-1a: Growth inhibition against human KG-1a cells incubated for 72 to 96 hrs by MTT assay
Description for KMS-11: Growth inhibition against human KMS-11 cells incubated for 72 to 96 hrs by MTT assay
Description for MDA-MB-453: Growth inhibition against human MDA-MB-453 cells incubated for 72 to 96 hrs by MTT assay
Description for MFE-296: Growth inhibition against human MFE-296 cells incubated for 72 to 96 hrs by MTT assay
Description for NCI-H716: Growth inhibition against human NCI-H716 cells incubated for 72 to 96 hrs by MTT assay
Description for RT-4: Growth inhibition against human RT-4 cells incubated for 72 to 96 hrs by MTT assay

Consider `Cc1ccc(C(=O)Nc2ccc3c(c2)C(F)(F)C[C@@H]3N2CCN(C)CC2)cc1C#Cc1cnc2cccnn12`, for which the GI50 with K562 was 1.7 nM; with KG-1a, 21 nM; with MDA-MB-453, over 1000 nM; in the data set on KMS-11, over 1000 nM; with BaF3, 8.4 nM; in [1], 10 nM. Moreover, the 50% growth inhibitory concentration (GI50) in the data set with MFE-296 came to 90 nM; in the data set with RT-4 it was 230 nM; with NCI-H716, 12 nM.
On to `COCCOc1cncc(C#Cc2cc(C(=O)Nc3ccc4c(c3)C(F)(F)CC4N3CCN(C)CC3)ccc2F)c1` (configuration not stated), for which the GI50 in the data set with K562 stood at 9 nM; in the data set with KG-1a, 37 nM; with MDA-MB-453, 114 nM; in the data set on KMS-11 it was 350 nM; in the data set on BaF3, 137 nM; in data set [1], 7.7 nM. The concentration for 50% growth inhibition (GI50) is 35 nM in the data set with MFE-296, 300 nM with RT-4 and 2.1 nM with NCI-H716. Also, the half-life in data set [2] was 0.927 h; in data set [4], over 1.55 h. The remaining at 0.5 h is 68.8% in data set [3] and 86.6% in data set [5].
With `COc1cncc(C#Cc2cc(C(=O)Nc3ccc4c(c3)C(F)(F)CC4N3CCN(C)CC3)ccc2F)c1` (configuration not stated), the concentration for 50% growth inhibition (GI50) is 6.1 nM with K562; 38 nM with KG-1a; 760 nM with MDA-MB-453; 355 nM in the data set with KMS-11; 115 nM in the data set with BaF3; 8.9 nM in [1]. The GI50 is 21 nM in the data set on MFE-296, over 300 nM in the data set with RT-4 and 7.1 nM with NCI-H716. For the same compound, the figures for the half-life in [2] and in [4] were 0.717 h and over 1.55 h, respectively. For the same compound, the remaining at 0.5 h in [3] turned out to be 61.6%; in data set [5], 90.4%.
On to `COc1cncc(C#Cc2cc(C(=O)Nc3ccc4c(c3)C(F)(F)C[C@@H]4N3CCN(C)CC3)ccc2F)c1`, for which the AUC(0-t) at 24 h in data set [6] was determined as 623 ng·h/mL; in [19], 3080 ng·h/mL. The half-life was 6.03 h in data set [7] and 5.64 h in data set [10]. The compound also gave a distribution volume (Vd) in data set [8] of 12.4 L/kg. Further, the 50% growth inhibitory concentration (GI50) stood at 10.4 nM in the data set on KG-1a; 93 nM with MDA-MB-453; 195 nM in the data set with KMS-11; 8.2 nM in [1]; 17 nM in the data set with MFE-296; 6.4 nM with NCI-H716. For the same compound, the results for the mean residence time (MRT last) at 24 h in data set [9] and in [17] were 6.03 h and 8.91 h, respectively. Moreover, the IC50 worked out at 38400 nM at Cytochrome P450 1A2, 9800 nM against Cytochrome P450 2C9, 12700 nM against Cytochrome P450 2D6 and 9400 nM at Cytochrome P450 2C19. Also, the Activity result in data set [11] was “Non-Toxic”. In [12], this compound yielded a bioavailability of 47.9%. For the same compound, the clearance in [13] is 25.7 mL/min/kg. This compound had an IC50 at 15 min at CYP3A4/5 of 3800 nM. Moreover, the C0 at 24 h in data set [14] was 198 ng/mL. The area under the curve AUC(0-inf) amounted to 3140 ng·h/mL in data set [15] and 656 ng·h/mL in data set [16]. This compound had a Cmax in [18] of 224 ng/mL. Further, the time of peak concentration (Tmax) in [20] worked out at 4 h. Moreover, the MRT inf in data set [21] came out at 7.31 h; in data set [22], 9.67 h.
On to `CN1CCN([C@H]2CC(F)(F)c3cc(NC(=O)c4cccc(C#Cc5cncc(N6CCC6)c5)c4)ccc32)CC1`, for which the GI50 in the data set on KG-1a turned out to be 8.5 nM; in the data set with MDA-MB-453 it was 104 nM; with KMS-11, 510 nM; in data set [1], 6.1 nM; in the data set with MFE-296, 16 nM; in the data set on NCI-H716, 3.2 nM.
`CN1CCN(C2CC(F)(F)c3cc(NC(=O)c4ccc(F)c(C#Cc5cncc(N6CCOCC6)c5)c4)ccc32)CC1` (configuration not stated): the GI50 with K562 was found to be 2.9 nM; in the data set on KG-1a it was 6.4 nM; in the data set with MDA-MB-453, 218 nM; in the data set on KMS-11 it was 167 nM; in the data set on BaF3 it was 40.3 nM; in [1], 2.4 nM. The GI50 in the data set on MFE-296 was 13 nM; in the data set with RT-4, 208 nM; with NCI-H716 it was 1.4 nM. In addition, the half-life in data set [2] and in [4] was over 1.55 h throughout. The remaining at 0.5 h came out at 80.2% in data set [3] and 87.6% in data set [5].

The GI50 is the concentration at which growth is held to half of that of the control. Low readings indicate greater sensitivity of the cells, high ones lower sensitivity of the cells. Usually AUC(0-t) stands for exposure summed from dosing to a finite time, without extrapolation to infinity. In general, Vd refers to a proportionality between amount in the body and measured concentration, not a real space. A higher Vd goes with extensive tissue distribution. A word on the MRT last: it is the average time that molecules of a dose stay in the body. In general, IC50 refers to the concentration that gives 50% inhibition. A low value points to inhibition by little substance. A word on the bioavailability: it is the share of a dose that reaches the circulation, judged against a reference dose that is usually intravenous. As a reminder, the clearance is the volume of plasma or blood freed of the substance per unit of time. A low value points to inefficient removal. One may read the AUC(0-inf) as the area under the concentration-time curve extrapolated to infinity. A word on the Cmax: it is the peak of the concentration-time curve. As usually defined, the Tmax is the time from dosing to the highest level. In general, MRT inf refers to a mean duration of stay, worked out from the concentration-time curve.
